Source: the supplement of paper PMC6045584
± gives the standard deviation of the averaged measurements.

Assays:
[1] = compound: CC1(C)CC(=O)c2c(C(F)(F)F)nn(-c3ccc(C(N)=O)c(N[C@H]4CC[C@H](OC(=O)CN)CC4)c3)c2C1 [SNX-5422]; assay: surviving fraction relative to DMSO-only wells; higher = less growth inhibition; conditions: exposure time: 5 days
Method in brief: (§1)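 Viability was scored with CellTiter-Glo luminescence and normalised to the median of DMSO-only wells as surviving fraction. Beforehand, log-phase tumour cell lines were seeded at 250–500 cells per well in 384-well plates, allowed 24 hours, and exposed continuously for five days to inhibitors at 0.5, 1, 5, 10, 50, 100, 500 and 1000 nM. Only lines whose three screens gave replicate Pearson r >0.7 and median Z' >0.3 were kept.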

[2] = compound: CN(C)C/C=C/C(=O)Nc1cc2c(Nc3ccc(F)c(Cl)c3)ncnc2cc1O[C@H]1CCOC1 [AFATINIB]; assay: as above; conditions: exposure time: 5 days
Method in brief: as §1

[3] = compound: C=CC(=O)Nc1cc2c(Nc3ccc(F)c(Cl)c3)ncnc2cc1OCCCN1CCOCC1 [CANERTINIB]; assay: area under dose-response curve of surviving fraction (unscaled, Aref=0) (surviving fraction x log10(nM)); higher = more resistant; conditions: exposure time: 5 days; dose range 0.5-1000 nM
Method in brief: (§2)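 Three screens per tumour cell line were run in 384-well plates at eight inhibitor concentrations from 0.5 to 1000 nM over five days. Surviving fractions, from CellTiter-Glo luminescence normalised to DMSO-only wells, were fitted with 3-parameter logistic curves in the drc R package. The reported area under the curve is the unscaled activity area. It spans log10 dose, and Aref is 0.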

[4] = compound: CCCCCCCCCCCCCCCC(=O)Nc1ccn([C@@H]2O[C@H](CO)[C@@H](O)[C@@H]2C#N)c(=O)n1 [SAPACITABINE]; assay: as above; conditions: exposure time: 5 days; dose range 0.5-1000 nM
Method in brief: as §2

[5] = compound: CC[C@@H]1C(=O)N(C)c2cnc(Nc3ccc(C(=O)NC4CCN(C)CC4)cc3OC)nc2N1C1CCCC1 [BI-2536]; assay: as above; conditions: exposure time: 5 days; dose range 0.5-1000 nM
Method in brief: as §2

[6] = compound: Cn1cc(C2=Nc3cc(NC(=O)C(N)C4CCCCC4)cc4c3C2=CNNC4=O)cn1; assay: as above; conditions: exposure time: 5 days; dose range 0.5-1000 nM
Method in brief: as §2

| Test System | surviving fraction ([1]; 0.5 nM) | surviving fraction ([1]; 1 nM) | surviving fraction ([1]; 5 nM) | surviving fraction ([1]; 10 nM) | surviving fraction ([1]; 50 nM) | surviving fraction ([1]; 100 nM) | surviving fraction ([1]; 500 nM) | surviving fraction ([1]; 1000 nM) | surviving fraction ([2]; 0.5 nM) | surviving fraction ([2]; 1 nM) | surviving fraction ([2]; 5 nM) | surviving fraction ([2]; 10 nM) | surviving fraction ([2]; 50 nM) | surviving fraction ([2]; 100 nM) | surviving fraction ([2]; 500 nM) | surviving fraction ([2]; 1000 nM) | area under dose-response curve [3] | area under dose-response curve [4] | area under dose-response curve [5] | area under dose-response curve [6] |
| --- | --- | --- | --- | --- | --- | --- | --- | --- | --- | --- | --- | --- | --- | --- | --- | --- | --- | --- | --- | --- |
| T47D BREAST | 1.08 ± 0.018 | 1.06 ± 0.018 | 1.08 ± 0.035 | 1.06 ± 0.019 | 0.492 ± 0.033 | 0.512 ± 0.016 | 0.31 ± 0.0074 | 0.288 ± 0.0079 | 1.06 ± 0.033 | 1.04 ± 0.06 | 1.01 ± 0.031 | 0.98 ± 0.023 | 1.04 ± 0.013 | 1.08 ± 0.022 | 1.07 ± 0.054 | 0.939 ± 0.037 | 3.01 | 2.9 | 1.66 | 3.35 |
| SCC36 HEADNECK | 1.05 ± 0.13 | 1.11 ± 0.086 | 1.19 ± 0.13 | 1.19 ± 0.089 | 0.434 ± 0.067 | 0.27 ± 0.041 | 0.0367 ± 0.0064 | 0.039 ± 0.004 | 0.926 ± 0.088 | 0.719 ± 0.061 | 0.523 ± 0.037 | 0.457 ± 0.031 | 0.418 ± 0.027 | 0.376 ± 0.029 | 0.264 ± 0.0053 | 0.149 ± 0.017 | 2.1 | 2.66 | 1.03 | 2.54 |
| 22RV1 PROSTATE | 1.06 ± 0.047 | 1.11 ± 0.056 | 1.06 ± 0.037 | 0.941 ± 0.056 | 0.169 ± 0.018 | 0.13 ± 0.022 | 0.0763 ± 0.014 | 0.0823 ± 0.0091 | 1.03 ± 0.098 | 1.05 ± 0.063 | 1.01 ± 0.037 | 0.977 ± 0.087 | 0.984 ± 0.052 | 0.916 ± 0.028 | 0.737 ± 0.057 | 0.515 ± 0.065 | 3.32 | 2.46 | 0.963 | 2.97 |
| 93VU HEADNECK | 1.14 ± 0.02 | 1.15 ± 0.029 | 1.31 ± 0.069 | 1.24 ± 0.085 | 0.648 ± 0.074 | 0.199 ± 0.041 | 0.0953 ± 0.0047 | 0.0957 ± 0.012 | 0.895 ± 0.046 | 0.883 ± 0.053 | 0.697 ± 0.075 | 0.59 ± 0.043 | 0.469 ± 0.085 | 0.46 ± 0.049 | 0.387 ± 0.017 | 0.302 ± 0.022 | 2.56 | 2.69 | 1.49 | 3.08 |
| CADOES1 SOFT TISSUE | 0.975 ± 0.13 | 0.967 ± 0.089 | 1.07 ± 0.04 | 0.943 ± 0.11 | 0.365 ± 0.064 | 0.122 ± 0.02 | 0.061 ± 0.0056 | 0.0547 ± 0.00058 | 0.833 ± 0.033 | 0.909 ± 0.063 | 0.914 ± 0.0056 | 0.98 ± 0.011 | 0.837 ± 0.018 | 0.997 ± 0.024 | 0.931 ± 0.11 | 0.724 ± 0.051 | 3 | 1.99 | 1.66 | 3.08 |
| HELA CERVIX | 1.08 ± 0.049 | 1.1 ± 0.031 | 1.09 ± 0.071 | 1.03 ± 0.028 | 1.2 ± 0.016 | 0.672 ± 0.081 | 0.228 ± 0.028 | 0.113 ± 0.016 | 1.08 ± 0.041 | 1.09 ± 0.049 | 1.06 ± 0.082 | 1.02 ± 0.022 | 1.19 ± 0.028 | 1.2 ± 0.018 | 1.22 ± 0.075 | 1.1 ± 0.045 | 3.11 | 2.94 | 1 | 3.79 |
